Assay: Plasma glucose levels in diabetic mice
Assay type: in vivo, mouse
Settings: 2 mM NAC for 3 weeks, 4 week diabetic mice
Experimental: Plasma levels in diabetic mice were elevated at ˜[…] which was 3-fold higher than controls (˜200 mg/dL). The percent (%) brain infarct area in vehicle- and STZ treated mice is linearly correlated with the plasma glucose level.
Four-week-old male C57BL/6J mice, weighing 18-20 g, were purchased from Jackson Laboratory. These mice were maintained at the Animal Facility of the Louisiana State University Health Sciences Center—Shreveport. Animal care and use in the experiments follow the guidelines in the Guide for the Care and Use of Laboratory Animals, published by the US National Institutes of Health. Following adaptation for 1 week, the mice were divided randomly into 4 groups: non-treated sham operation group (NT-sham group, n=6), non-treated I/R group (NT-I/R group, n=5), vehicle I/R group (Veh-I/R group, n=24), and streptozotocin I/R group (STZ-I/R group, n=19). […] On day 7, mice whose plasma glucose was more than 300 mg/dl were deemed to be diabetic. […] Another Veh-treated mice were injected (intraperitoneally, 12 hr interval) with 0.5M BSO 24 h before the ischemia operation and during the 24 h reperfusion period (Veh+BSO group, n=10). All mice were 9 weeks old at sacrifice.

CC(=O)N[C@@H](CS)C(=O)O [NAC, N-acetylcysteine]
plasma glucose levels: did not alter

From patent US20180036270A1, “A METHOD OF PROTECTING AGAINST CARBONYL STRESS INDUCED ISCHEMIA-REPERFUSION INJURY IN THE DIABETIC BRAIN VIA ADMINISTRATION OF N-ACETYLCYSTEINE” (Board of Supervisors of Louisiana State University and …, priority 2015, published 2018)
